Patent publication US10117866B2, “Promoting axon regeneration in the adult CNS through control of protein translation” (CHILDREN'S MEDICAL CENTER CORPORATION, priority 2008, dated 2018)

Test system: dorsal corticospinal tract (CST) axons
Assay: Spinal injury (dorsal corticospinal tract transection) in rats, intrathecal or intravenous PTEN inhibitor
Format: in vivo, Sprague Dawley rats
Settings: intrathecal or intravenous administration, rat spinal injury model
Source text: Methodology for this animal study was adapted from Nash et al (J. Neurosci (2002) 22:7111-7120), Luo et al (Molecular Pain (2005) 1:29), and Obata et al (J. Neurosci. (2004) 24:10211-22).
Adult Sprague Dawley rats ([…]) are trained and tested in a directed forepaw reaching (DFR) apparatus which measures grasping ability. The apparatus, which is described in detail by Nash et al., supra, is a box that consists of two compartments: a main compartment for housing the rats and a minor compartment for the food, separated by a PLEXIGLAS™ divider. The minor compartment is subdivided into slots of equal size, each holding a pellet of food. Between the slots and the PLEXIGLAS™ there is a gap. The apparatus is configured such that in order to retrieve a food pellet from a slot, a rat must extend a forelimb through a hole in the PLEXIGLAS™ divider, and grasp the pellet and lift it over the gap and out of the slot. If the rat merely rakes the food in the slot towards the hole in the PLEXIGLAS™, the food will drop from the slot into the gap and fall to the floor of the minor compartment. The floor of the minor compartment can be configured to allow a rat to retrieve food that drops or it can be lowered to prevent the rat from reaching dropped food. Prior to inducing spinal injury, the rats are food restricted, receiving ˜[…] body weight per day, before and throughout training and testing. Weight is monitored to ensure that rats are reduced to no less than 80% of their original body weight at any time. All rats are given shaping periods for 2-3 d in the box to allow them to learn the task while they become familiar with the testing situation. Animals are trained twice per day for 5 d and then tested twice per day for 5 d, and presurgical DFR data is collected. During the testing period, rats are given 5 min to complete the task and are allowed to make as many attempts as they want during this time period. Rats are required to return to at least 95% of their original weight to ensure that they are healthy before undergoing surgery.
Rats are randomly assigned to control or experimental groups. Sham control rats undergo surgical procedure without lesioning, and with or without placement of a mini osmotic pump (Alzet type 2001; Durect, Cupertino, Calif.). Lesioned control rats receive no treatment, tail vein injection with vehicle only treatment, insertion of a mini osmotic pump only treatment, or insertion of a mini osmotic pump with vehicle only treatment. After anesthesia with isoflurane, the rats are placed on an operating board in such a way as to bend the cervical spinal cord for maximum exposure. A laminectomy is performed exposing the dorsum of the spinal cord between C2 and C4. […]

Compound | axonal regeneration after spinal injury
O.O.O.OO.OO.[K+].[OH-].[V].c1cnc2c(c1)ccc1cccnc12 [bpV(phen), potassium bisperoxo(1,10-phenanthroline)oxovanadate (V)] | can be promoted
O.O.O=C([O-])c1ccccn1.OO.OO.[K+].[K+].[OH-].[V] [bpV(pic), dipotassium bisperoxo(picolinato)oxovanadate (V)] | can be promoted
dipotassium bisperoxo(5-hydroxypyridine-2-carboxyl)oxovanadate (V) [bpV(HOpic)] | can be promoted
potassium bisperoxo(bipyridine)oxovanadate (V) [bpV(bipy)] | can be promoted

Target: PTEN (Homo sapiens, UniProt P60484)
Sequence (P60484 whole entry, species assumed): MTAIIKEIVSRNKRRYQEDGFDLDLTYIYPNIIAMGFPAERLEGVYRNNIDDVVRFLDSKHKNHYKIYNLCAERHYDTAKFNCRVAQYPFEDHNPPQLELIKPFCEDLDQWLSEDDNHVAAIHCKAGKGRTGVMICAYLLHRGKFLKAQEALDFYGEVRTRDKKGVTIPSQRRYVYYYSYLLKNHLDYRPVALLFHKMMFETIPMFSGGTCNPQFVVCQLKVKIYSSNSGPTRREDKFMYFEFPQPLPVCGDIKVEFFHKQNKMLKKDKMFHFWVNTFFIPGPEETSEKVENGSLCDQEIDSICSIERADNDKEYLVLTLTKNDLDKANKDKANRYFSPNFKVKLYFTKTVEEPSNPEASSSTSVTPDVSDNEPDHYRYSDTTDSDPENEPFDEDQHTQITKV
Assay: PTEN inhibition assay (malachite green phosphate release), IC50 determination
Format: biochemical
Settings: not given
Description: PTEN inhibitors are evaluated in an inhibition assay conducted in half-volume 96 well plates in 25 ul total volume per well containing 2 mM dithiothreitol (DTT) and 0.1 mM Tris buffer, pH 8.0 and up to 3 ug total protein of PTEN. Small volumes of the test inhibitor candidates (stock concentrated solutions of 25 mM in DMSO) are mixed with the PTEN solution at room temperature for about 10 minutes and then substrate is added. The reaction mix is then incubated in 37° C. for 20 minutes. Subsequent to this a 100 ul aliquot of malachite green buffer (Upstate, Charlottesville, Va.) is added to develop the color in the dark at room temperature (this solution also stops the dephosphorylation reaction). A SpectraMax Plus spectrophotometric plate reader (Molecular Devices, Sunnyvale, Calif.) is used to measure the optical density at 650 nanometers. […]
To determine the dose response of potential PTEN inhibitors, doses of test compounds ranging from 1 nM to 250 uM (final reaction mix concentrations) are evaluated in the general PTEN inhibition assay (supra). […] Once the concentration range is determined, at which PTEN activity changes dramatically, two additional concentration data points within this range are added and the PTEN inhibition assay is then rerun for the second round. […]

Compound | IC50
CC(C)(C)C(=O)Nc1cnc2c(c1)C(=O)C(=O)c1cccnc1-2 | 2000 nM
O=C(COc1ccccc1)Nc1cnc2c(c1)C(=O)C(=O)c1cccnc1-2 | 300 nM
